Ends that are not written are not given here.
test system: R. mucilaginosa; experiment: not given; format: cell-based, Rhodotorula mucilaginosa; settings: 48 h
Description: (§1) The peptide synthesis was performed by Laboratoire Innodal (Lévis, QC, Canada). Fourteen peptides were synthesized by standard solid-phase peptide synthesis (SPPS) on an automated peptide synthesizer. Solubility of peptides was first tested on saline water with 0.85% NaCl. […] Each peptide was solubilized in a small volume of dimethylsulfoxide (DMSO), and water was subsequently added until a 10% (v/v) DMSO concentration was reached. The stock solution of each peptide was at a concentration of 2.5 mM. The pH of the final solution was below the isoelectric point of each peptide. […] Antifungal assays on synthesized peptides were realized using methods described below.
(§2) The antibacterial activity was tested against two indicator bacteria including Escherichia coli and Listeria ivanovii (Table 1). These two strains are Gram-negative and Gram-positive, respectively and are commonly sensitive strains. They were subcultured in Tryptic Soy Broth (TSB) two times for 18 h, at 37 °C for E. coli and 30 °C for L. ivanovii. The antifungal activity was evaluated against four filamentous molds and four yeasts (Table 1). All the strains for antifungal assays were chosen since they are the most often strains identified as spoilage microorganisms of food products, specifically in the meat industry. The 4 filamentous molds were subcultured on Potato Dextrose Agar (PDA) at 25 °C, for 7 days, 2 times. The 4 yeasts were subcultured in Potato Dextrose Broth (PDB) at 25 °C, for 48 h, 2 to 3 times (Table 1).
(§3) The minimum inhibitory concentration (MIC) of the hydrolysate that induces inhibition of the microorganism tested was determined according to Froidevaux et al.. To quantify the growth inhibition, 96-well microplate assays were performed using Mueller-Hinton broth (MH, BD-Difco, Sparks, MD, USA). Samples were micro-diluted from the stock concentration of 40 mg/mL of proteins. The inoculum was pre-diluted in MH at a concentration of 5 × 10^5 CFU/mL. Then, the microplate was incubated 24 h at 37 °C for E. coli and at 30 °C for L. ivanovii. The molds and yeasts strains were, respectively tested at 2 × 10^4 and 1 × 10^5 conidia or yeast per mL [32]. The automated cell counter was used to determine the concentration. The microplates were incubated for 48 h at 25 °C for the molds and R. mucilaginosa, and at 35 °C for the other yeast strains. The MIC was the lowest concentration that inhibited completely the microorganism growth. The growth was measured by absorbance at 595 nm (Infinite® F200 PRO, Tecan Inc., Durham, NC, USA).
(§4) Then, they were, respectively incubated for 24 h at 37 °C or 30 °C and 48 h at 25 °C. The lowest concentration that inhibited microorganism growth is the MBC or MFC.

Substance | MFC | MIC
FRLLGNVIVVV | 300 ± 0 µM | 156 µM
GHLDDLPGALSALSDLHAHKL | 600 ± 0 µM | 600 ± 0 µM
HVDPENFRLLGNVIVVVL | 300 ± 100 µM | 100 ± 50 µM
LAHKYH [LAHKYH] | 1300 ± 0 µM | 1250 µM
NALAHKYH | 300 ± 0 µM | 300 ± 0 µM

same assay, conditions: synthesized peptides, stock 2.5 mM in 10% (v/v) DMSO, highest tested concentration 1.25 mM, 48 h at 25 °C, mean ± SD

Substance | MIC
HVDPEN | not active

test system: Paecilomyces spp.; experiment: not given; format: cell-based; settings: 48 h
Description: as §1, §2, §3, §4

Substance | MFC | MIC
FRLLGNVIVVV | 600 ± 0 µM | 625 µM
GHLDDLPGALSALSDLHAHKL | 1700 ± 700 µM | 1300 ± 0 µM
HVDPENFRLLGNVIVVVL |  | >1300 ± 0 µM
LAHKYH [LAHKYH] | 1300 ± 0 µM | 1250 µM
NALAHKYH | 300 ± 0 µM | 200 ± 0 µM

same assay, conditions: synthesized peptides, stock 2.5 mM in 10% (v/v) DMSO, highest tested concentration 1.25 mM, 48 h at 25 °C, mean ± SD

Substance | MIC
HVDPEN | not active

test system: not listed separately; experiment: RP-UPLC-MS/MS peptide profile, retention time; format: physicochemical; settings: Poroshell 120 EC-C18, water/acetonitrile with 0.1% formic acid, B 1–13% in 6 min, 35% at 25 min, 100% at 35 min, 23 °C, 500 µL/min, early elution read as high polarity, late as higher hydrophobicity
From the text: RP-UPLC coupled with MS/MS Q-TOF system was used to separate, identify, and characterize the peptide population, present in the porcine cruor hydrolysates. RP-UPLC tests were operated using a 1290 Infinity II UPLC (Agilent Technologies, Santa Clara, CA, USA), following the method proposed by. This chromatography instrument was composed of a binary pump (G7120A), a multisampler (G7167B), an in-line degasser and a variable wavelength detector (VWD G7114B) adjusted to 214 nm. […] Then, solvent B ramped to 100% until 35 min and was maintained for 10 min before returning to initial conditions. The cruor hydrolysate samples (2% protein (w/v)) were filtered through 0.22 µm PVDF filter and a volume of 0.25 µL was loaded onto a Poroshell 120 EC-C18 column (2.1 × 100 mm i.d., 2.7 micron, Agilent, Santa Clara, CA, USA) at a flow rate of 500 µL/min.
The determination of the accurate mass was performed using a hybrid ion mobility quadrupole time of flight mass spectrometer (6560 high-definition mass spectrometry (IM-Q-TOF), Agilent, Santa Clara, CA, USA). Calibration was completed using an ESI-L low concentration tuning mix (G1969-85000, Agilent Technologies, Santa Clara, CA, USA). Nitrogen was selected as the drying (13.0 L/min, 150 °C) and nebulizer gas (30 psi). The voltages were set at 3500 V for the capillary, 300 V for the nozzle and 400 V for the fragmentor. Positive mode at Extended Dynamic Range, 2 Ghz, 3200 m/z was used to record signals. Data acquisition and analysis were performed using the Agilent Mass Hunter Software package (LC/MS Data Acquisition, Version B.08.00 and Qualitative Analysis for IM-MS, Version B.07.00 Service Pack 2 with BioConfirm Software and BioConfirm, Version 10.0). A false discovery rate of 1% was used for extraction of biomolecules. […] Finally, these peptides were compared with bioactive peptides already known in the literature or analyzed with a predictive antimicrobial database.

Substance | Retention Time
AAFQKVVAGVANA [porcine hemoglobin fragment β 129–141] | 10.86 min
ANVSTVLTSKYR [porcine hemoglobin fragment α 130–141] | 8.45 min
CLLVTLAAHHPDDFNPS [porcine hemoglobin fragment α 104–120] | 12.90 min
DPENFRLLGNVIVVVLA [porcine hemoglobin fragment β 100–116] | 11.10 min
DQLHVDPENFRLLGNVIVVVLARRLGHDFNPNVQ [porcine hemoglobin fragment β 95–128] | 24.79 min
ERMFLGF [porcine hemoglobin fragment α 30–36] | 16.27 min
ERMFLGFPTTKTYFPHF [porcine hemoglobin fragment α 30–46] | 18.24 min
FESF [porcine hemoglobin fragment β 43–46] | 9.60 min
FESFGDLSNAD [porcine hemoglobin fragment β 43–53] | 12.20 min
FLGFPTTKTYFPHF [porcine hemoglobin fragment α 33–46] | 19.13 min
FRLLGNVIVVVLARRLGHDFNPNVQ [porcine hemoglobin fragment β 104–128] | 21.87 min
GAEALERMFLGFPT [porcine hemoglobin fragment α 25–38] | 9.91 min
GLWGKVNVDEVGGEALGRL [porcine hemoglobin fragment β 14–32] | 16.84 min
HVDPENFRLLGNVIV [porcine hemoglobin fragment β 98–112] | 17.16 min
HVDPENFRLLGNVIVVVLARRLGHDFNPNVQ [porcine hemoglobin fragment β 98–128, synthesized] | 23.26 min
HVDPENFRLLGNVIVVVLARRLGHDFNPNVQA [porcine hemoglobin fragment β 98–129, synthesized] | 23.33 min
KLLSHCL [porcine hemoglobin fragment α 99–105] | 8.01 min
KLLSHCLL [porcine hemoglobin fragment α 99–106] | 10.93 min
KLLSHCLLVTLAAHHPD [porcine hemoglobin fragment α 99–115] | 11.10 min
LANVSTVLTSKYR [porcine hemoglobin fragment α 129–141] | 10.36 min
LERMFLGF [porcine hemoglobin fragment α 29–36] | 17.60 min

Substance | Retention Time
LGFPTTKTYFPHF [porcine hemoglobin fragment α 34–46] | 16.46 min
LLVVYPWTQRF [porcine hemoglobin fragment β 32–42] | 19.00 min
LSDLHAHKLRVDPVNF [porcine hemoglobin fragment α 83–98] | 10.23 min
LVVYPWTQRF [porcine hemoglobin fragment β 33–42] | 16.65 min
NLSHGSDQVKAHGQKVADALTKAVGHLDDLPGAL [porcine hemoglobin fragment α 47–80] | 15.89 min
PNVQAAFQKVVAGVANALA [porcine hemoglobin fragment β 125–143] | 11.10 min
PTTKTYFPHF [porcine hemoglobin fragment α 37–46] | 12.01 min
RMFLGFPTTKTYFPHF [porcine hemoglobin fragment α 31–46] | 17.99 min
SDLHAHKLRVDPVNF [porcine hemoglobin fragment α 84–98] | 9.34 min
SFGDLSNADAVMGNPKVK [porcine hemoglobin fragment β 45–62] | 12.90 min
SFSDGLKHLDNLKGTFA [porcine hemoglobin fragment β 71–87] | 12.90 min
SNADAVMGNPKVKAH [porcine hemoglobin fragment β 50–64] | 9.91 min
STVLTSKYR [porcine hemoglobin fragment α 133–141] | 6.67 min
TSKYR [known antimicrobial peptide, porcine hemoglobin fragment α 137–141] | 1.64 min
TVLTSKYR [porcine hemoglobin fragment α 134–141] | 6.54 min
VLSAADKANVKAAWGKVGGQAGAHGAEA [porcine hemoglobin fragment α 1–28] | 9.15 min
VLSAADKANVKAAWGKVGGQAGAHGAEAL [porcine hemoglobin fragment α 1–29] | 10.86 min
VLSAADKANVKAAWGKVGGQAGAHGAEALERM [porcine hemoglobin fragment α 1–32] | 12.14 min
VLTSKYR [porcine hemoglobin fragment α 135–141] | 5.97 min
VTLAAHHPDDFNPSVHASLDKF [porcine hemoglobin fragment α 107–128] | 11.37 min
